The structures appear in SMILES notation.

Here are results for twelve compounds from patent publication US11427606B2, “Azithromycin derivatives containing a phosphonium ion as anticancer agents” (Rising Tide Foundation, priority 2017, dated 2022).

For the test, the system named is MDA-231 cancer cells. Nature of the test: Inhibition of proliferation assay: cell confluence (IncuCyte imaging). It counts as cell-based. The note with it: compound at 10 uM; MDA-231 cells; IncuCyte images every 3 h over 4-5 d; relative confluence normalised to time zero. An excerpt: Inhibition of Proliferation Assay
The confluence value is a surrogate for cell proliferation and growth. The value is expressed as a percent confluence, which represents the fraction of culture dish-surface that is occupied by cells. As the number of cells in the dish increases over time due to proliferation, so will their coverage of that surface increase. Expansion of the cell population on the cell culture-dish surface and confluence have mostly a linear relationship until the cells on the plate surface begin to reach saturation or maximum density.
Confluence is determined based on image analysis. Image based software can identify objects in the image field base on changes to pixel density in a grey scale image. The software can then assign a mask to those pixels within the object. Objects can be ‘gated’ out based on size and shape. To determine cell confluence, images of cells are first masked as objects. The surface area of the image that is masked is measured and compared to the total surface area of the culture dish surface to obtain a percent confluence.
MDA-231 cancer cells were obtained from ATCC. Cells were cultured in Dulbecco's Modified Eagle Medium (DMEM) supplemented with 10% Fetal Bovine Serum (FBS), 2 mM Glutamax, 1 mM Non Essential Amino Acid (NEAA) solution and 1 mM sodium pyruvate. […] Final DMSO concentrations were […]. Images were acquired with an IncuCyte Live Cell Imaging microscopy (Essen Bioscience) at every 3 h under cell culture conditions with 10× objective over 4-5 d. Cell confluence was calculated from one field of view per well using the IncuCyte in-built algorithm. Relative confluence values were obtained by normalising each value to the time zero value in each sample.
For `CC[C@H]1OC(=O)[C@H](C)[C@@H](O[C@H]2C[C@@](C)(OC)[C@@H](O)[C@H](C)O2)[C@H](C)[C@@H](O[C@@H]2O[C@H](C)C[C@H](N(C)C)[C@H]2O)[C@](C)(O)C[C@@H](C)CN(C(=O)CCCCCCC[P+](c2ccccc2-c2c(OC(C)C)cccc2OC(C)C)(C2CCCCC2)C2CCCCC2)[C@H](C)[C@@H](O)[C@]1(C)O` [Example 6, [2′,6′-bis(propan-2-yloxy)-[1,1′-biphenyl]-2-yl]dicyclohexyl{8-[(2R,3S,4R,5R,8R,10R,11R,12S,13S,14R)-11-{[(2S,3R,4S,6R)-4-(dimethylamino)-3-hydroxy-6-methyloxan-2-yl]oxy}-2-ethyl-3,4,10-trihydroxy-13-{[(2R,4R,5S,6S)-5-hydroxy-4-methoxy-4,6-dimethyloxan-2-yl]oxy}-3,5,8,10,12,14-hexamethyl-15-oxo-1-oxa-6-azacyclopentadecan-6-yl]-8-oxooctyl}phosphonium hexafluorophosphate(V)], the “% Confluence” value stood at 4%. `CC[C@H]1OC(=O)[C@H](C)[C@@H](O[C@H]2C[C@@](C)(OC)[C@@H](O)[C@H](C)O2)[C@H](C)[C@@H](O[C@@H]2O[C@H](C)C[C@H](N(C)C)[C@H]2O)[C@](C)(O)C[C@@H](C)CN(C(=O)CCCCCCC[P+](C2CCCCC2)(C2CCCCC2)C2CCCCC2)[C@H](C)[C@@H](O)[C@]1(C)O` [Example 7, tricyclohexyl({8-[(2R,3S,4R,5R,8R,10R,11R,12S,13S,14R)-11-{[(2S,3R,4S,6R)-4-(dimethylamino)-3-hydroxy-6-methyloxan-2-yl]oxy}-2-ethyl-3,4,10-trihydroxy-13-{[(2R,4R,5S,6S)-5-hydroxy-4-methoxy-4,6-dimethyloxan-2-yl]oxy}-3,5,8,10,12,14-hexamethyl-15-oxo-1-oxa-6-azacyclopentadecan-6-yl]-8-oxooctyl})phosphonium hexafluorophosphate(V)]: the “% Confluence” value is 75.3%.

For `CC[C@H]1OC(=O)[C@H](C)[C@@H](O[C@H]2C[C@@](C)(OC)[C@@H](O)[C@H](C)O2)[C@H](C)[C@@H](O[C@@H]2O[C@H](C)C[C@H](N(C)C)[C@H]2O)[C@](C)(O)C[C@@H](C)CN(C(=O)CCCCCCC[P+](c2ccccc2)(c2ccccc2)c2ccccn2)[C@H](C)[C@@H](O)[C@]1(C)O` [Example 8, {8-[(2R,3S,4R,5R,8R,10R,11R,12S,13S,14R)-11-{[(2S,3R,4S,6R)-4-(dimethylamino)-3-hydroxy-6-methyloxan-2-yl]oxy}-2-ethyl-3,4,10-trihydroxy-13-{[(2R,4R,5S,6S)-5-hydroxy-4-methoxy-4,6-dimethyloxan-2-yl]oxy}-3,5,8,10,12,14-hexamethyl-15-oxo-1-oxa-6-azacyclopentadecan-6-yl]-8-oxooctyl}diphenyl(pyridine-2-yl)phosphonium hexafluorophosphate(V)], the “% Confluence” value is recorded as 83%. The value for `CC[C@H]1OC(=O)[C@H](C)[C@@H](O[C@H]2C[C@@](C)(OC)[C@@H](O)[C@H](C)O2)[C@H](C)[C@@H](O[C@@H]2O[C@H](C)C[C@H](N(C)C)[C@H]2O)[C@](C)(O)C[C@@H](C)CN(CCCCCC[P+](C2CCCCC2)(C2CCCCC2)C2CCCCC2)[C@H](C)[C@@H](O)[C@]1(C)O.[I-]` [Example 9] was 70.9%; that for `CC[C@H]1OC(=O)[C@H](C)[C@@H](O[C@H]2C[C@@](C)(OC)[C@@H](O)[C@H](C)O2)[C@H](C)[C@@H](O[C@@H]2O[C@H](C)C[C@H](N(C)C)[C@H]2O)[C@](C)(O)C[C@@H](C)CN(CCCCCC[P+](c2ccccc2-c2ccccc2N(C)C)(C2CCCCC2)C2CCCCC2)[C@H](C)[C@@H](O)[C@]1(C)O` [Example 10, dicyclohexyl({6-[(2R,3S,4R,5R,8R,10R,11R,12S,13S,14R)-11-{[(2S,3R,4S,6R)-4-(dimethylamino)-3-hydroxy-6-methyloxan-2-yl]oxy}-2-ethyl-3,4,10-trihydroxy-13-{[(2R,4R,5S,6S)-5-hydroxy-4-methoxy-4,6-dimethyloxan-2-yl]oxy}-3,5,8,10,12,14-hexamethyl-15-oxo-1-oxa-6-azacyclopentadecan-6-yl]hexyl})[2′-(dimethylamino)-[1,1′-biphenyl]-2-yl]phosphonium iodide] was 4%; that for `CC[C@H]1OC(=O)[C@H](C)[C@@H](O[C@H]2C[C@@](C)(OC)[C@@H](O)[C@H](C)O2)[C@H](C)[C@@H](O[C@@H]2O[C@H](C)C[C@H](N(C)C)[C@H]2O)[C@](C)(O)C[C@@H](C)CN(CCCCCCCC[P+](c2ccccc2)(c2ccccc2)c2ccc(N(C)C)cc2)[C@H](C)[C@@H](O)[C@]1(C)O.[I-]` [Example 12] was 4.1%. `CC[C@H]1OC(=O)[C@H](C)[C@@H](O[C@H]2C[C@@](C)(OC)[C@@H](O)[C@H](C)O2)[C@H](C)[C@@H](O[C@@H]2O[C@H](C)C[C@H](N(C)C)[C@H]2O)[C@](C)(O)C[C@@H](C)CN(CCCCCCCC[P+](c2ccc(OC)cc2)(c2ccc(OC)cc2)c2ccc(OC)cc2)[C@H](C)[C@@H](O)[C@]1(C)O.[I-]` [Example 13]: the “% Confluence” value came to 4.8%. As for `CC[C@H]1OC(=O)[C@H](C)[C@@H](O[C@H]2C[C@@](C)(OC)[C@@H](O)[C@H](C)O2)[C@H](C)[C@@H](O[C@@H]2O[C@H](C)C[C@H](N(C)C)[C@H]2O)[C@](C)(O)C[C@@H](C)CN(CCCCCCCCCC[P+](c2ccc(OC)cc2)(c2ccc(OC)cc2)c2ccc(OC)cc2)[C@H](C)[C@@H](O)[C@]1(C)O.[I-]` [Example 15], the “% Confluence” value is 16.6%. The value for `CC[C@H]1OC(=O)[C@H](C)[C@@H](O[C@H]2C[C@@](C)(OC)[C@@H](O)[C@H](C)O2)[C@H](C)[C@@H](O[C@@H]2O[C@H](C)C[C@H](N(C)C)[C@H]2O)[C@](C)(O)C[C@@H](C)CN(C(=O)CCCCCCC[P+](c2cc(C)cc(C)c2)(c2cc(C)cc(C)c2)c2cc(C)cc(C)c2)[C@H](C)[C@@H](O)[C@]1(C)O` [Example 16, {8-[(2R,3S,4R,5R,8R,10R,11R,12S,13S,14R)-11-{[(2S,3R,4S,6R)-4-(dimethylamino)-3-hydroxy-6-methyloxan-2-yl]oxy}-2-ethyl-3,4,10-trihydroxy-13-{[(2R,4R,5S,6S)-5-hydroxy-4-methoxy-4,6-dimethyloxan-2-yl]oxy}-3,5,8,10,12,14-hexamethyl-15-oxo-1-oxa-6-azacyclopentadecan-6-yl]-8-oxooctyl}tris(3,5-dimethylphenyl)phosphonium hexafluorophosphate(V)] was 10%; that for `CC[C@H]1OC(=O)[C@H](C)[C@@H](O[C@H]2C[C@@](C)(OC)[C@@H](O)[C@H](C)O2)[C@H](C)[C@@H](O[C@@H]2O[C@H](C)C[C@H](N(C)C)[C@H]2O)[C@](C)(O)C[C@@H](C)CN(C(=O)CCCCCCC[P+](c2ccccc2)(c2ccccc2)c2ccccc2CN(C)C)[C@H](C)[C@@H](O)[C@]1(C)O` [Example 17, {8-[(2R,3S,4R,5R,8R,10R,11R,12S,13S,14R)-11-{[(2S,3R,4S,6R)-4-(dimethylamino)-3-hydroxy-6-methyloxan-2-yl]oxy}-2-ethyl-3,4,10-trihydroxy-13-{[(2R,4R,5S,6S)-5-hydroxy-4-methoxy-4,6-dimethyloxan-2-yl]oxy}-3,5,8,10,12,14-hexamethyl-15-oxo-1-oxa-6-azacyclopentadecan-6-yl]-8-oxooctyl}({2-[(dimethylamino)methyl]phenyl})diphenylphosphonium hexafluorophosphate(V)] was 93.1%. Then `CC[C@H]1OC(=O)[C@H](C)[C@@H](O[C@H]2C[C@@](C)(OC)[C@@H](O)[C@H](C)O2)[C@H](C)[C@@H](O[C@@H]2O[C@H](C)C[C@H](N(C)C)[C@H]2O)[C@](C)(O)C[C@@H](C)CN(C(=O)CCCCCCC[P+](c2ccccc2)(c2ccccc2)c2ccccc2-c2ccccc2)[C@H](C)[C@@H](O)[C@]1(C)O` [Example 18, {[1,1′-biphenyl]-2-yl}({8-[(2R,3S,4R,5R,8R,10R,11R,12S,13S,14R)-11-{[(2S,3R,4S,6R)-4-(dimethylamino)-3-hydroxy-6-methyloxan-2-yl]oxy}-2-ethyl-3,4,10-trihydroxy-13-{[(2R,4R,5S,6S)-5-hydroxy-4-methoxy-4,6-dimethyloxan-2-yl]oxy}-3,5,8,10,12,14-hexamethyl-15-oxo-1-oxa-6-azacyclopentadecan-6-yl]-8-oxooctyl})diphenylphosphonium hexafluorophosphate(V)], with 7.7%. Take `CC[C@H]1OC(=O)[C@H](C)[C@@H](O[C@H]2C[C@@](C)(OC)[C@@H](O)[C@H](C)O2)[C@H](C)[C@@H](O[C@@H]2O[C@H](C)C[C@H](N(C)C)[C@H]2O)[C@](C)(O)C[C@@H](C)CN(C(=O)CCCCCCC[P+](c2ccccc2)(c2ccccc2)c2ccc(N(C)C)cc2)[C@H](C)[C@@H](O)[C@]1(C)O` [Example 19, {8-[(2R,3S,4R,5R,8R,10R,11R,12S,13S,14R)-11-{[(2S,3R,4S,6R)-4-(dimethylamino)-3-hydroxy-6-methyloxan-2-yl]oxy}-2-ethyl-3,4,10-trihydroxy-13-{[(2R,4R,5S,6S)-5-hydroxy-4-methoxy-4,6-dimethyloxan-2-yl]oxy}-3,5,8,10,12,14-hexamethyl-15-oxo-1-oxa-6-azacyclopentadecan-6-yl]-8-oxooctyl}[4-(dimethylamino)phenyl]diphenylphosphonium hexafluorophosphate(V)]: the “% Confluence” value came out at 10.5%.
